According to US11834663B2, “Fibrotic treatment” (Monash University, priority 2015, dated 2023):

Tested on: hearts of aged (18-22 month old) WT mice
Experiment: Reversal of age-induced cardiac fibrosis and inflammation in aged WT mice (histology, immunofluorescence, western blot)
Assay type: in vivo, mouse
Details: aged (~20 month old) WT mice, 4 weeks, FIG. 19
Protocol: There are 8 different sets of in vivo experiments in this study: • A) Phenotypic characterisation of the heart and blood vessels in global IRAP knockout mice and their WT controls treated for 4 weeks with Angiotensin (Ang) II (800 ng/kg/min; s.c.) where mouse hearts and blood vessels were compared to tissue obtained from young WT and IRAP^−/− mice treated with saline. • B) Prevention of Ang II-induced changes in the cardiovascular system following IRAP inhibitor treatment. In the prevention model, WT mice were treated with Ang II (800 ng/kg/min; s.c.)±the IRAP inhibitor (HFI-419; 500 ng/kg/min for 28 days) or HFI-vehicle (1 DMSO:3 HBC). • C) Phenotypic characterisation of the aged heart, kidney and blood vessels in the global IRAP knockout mice where aged WT and IRAP^−/− mouse hearts, kidneys and blood vessels were compared to tissue obtained from young WT and IRAP^−/− mice. • D) Reversal of the age-induced changes in the cardiovascular system following IRAP inhibitor treatment. In the reversal model, aged WT mice were treated with either saline, IRAP inhibitor (HFI-419 at 500 ng/kg/min; compound 1 at 500 ng/kg/min; compound 2 at 50 ng/kg/min) or HFI-vehicle (1 DMSO: 3 HBC) for 4 weeks. • E) Prevention of ischemic-reperfusion injury in isolated hearts taken from aged global IRAP knockout mice and aged IRAP inhibitor (HFI-419 at 500 ng/kg/min; s.c.) treated WT mice compared to age-matched vehicle-treated (1 DMSO:3 HBC; s.c.) WT controls. • F) Phenotypic characterization of cardiac function using echocardiography in the aged global IRAP knockout mice compared to aged and young WT mice. • G) Phenotypic characterization of liver steatosis in IRAP knockout mice in a high fat diet (HFD) model. • H) Reversal of the salt-induced fibrosis in the liver following IRAP inhibitor treatment.
All mice which underwent surgery were anaesthetized with Isoflurane (Isorrane) (5% induction and 2.5% maintenance) and an incision made in the midscapular region through which osmotic minipumps (Alzet model 2004, Alza Corp) were inserted for subcutaneous drug administration. The incision area was sutured with 6/0 DY silk (Dynek Pty Ltd) and antibiotic powder applied (Cicatrin, Pfizer) followed by intramuscular injection of the analgesic Cartrophen (0.1 ml of a 1.5 mg/ml stock solution; Biopharm Australia). Systolic blood pressure (SBP) was measured fortnightly using non-invasive tail-cuff plethysmography apparatus (MC4000 Blood Pressure Analysis System, Hatteras Instrument Inc) before drug treatment (week 0), at week 2 of treatment and end of treatment (week 4). At the end of drug treatment, body weight of mice was recorded. Mice were anaesthetized using Isoflurane inhalation and killed by cervical dislocation. Organs (heart, aorta, kidneys, brain, blood and tibia) were collected, with heart and aorta being dissected appropriately as described below. All organs were then snap frozen in liquid nitrogen, and stored at −80° C. if they were not used for vascular reactivity studies conducted on the day mice were killed.
To measure collagen deposition, frozen sections of heart, kidney or aorta (all 5 μm thickness) were air dried for 10 minutes and were brought through 3 times xylene (2 minutes each), and 3 times absolute alcohol washes before being rinsed in tap H2O for 30 seconds. Staining with an optimal concentration of picrosirius red (in this instance 0.05% picrosirius red diluted in saturated picric acid) was performed and left for an hour. Sections were then rinsed in water and differentiated in 0.01 M HCl for 2 minutes, followed by dehydration via 3 times absolute alcohol washes. Then, slides were brought through 3 times xylene washes before being cover slipped according to standard histological techniques using DPX as the mounting medium. […]

SMILES | age-induced collagen expression in the heart (picrosirius red) (compound 1 at 500 ng/kg/min) | age-induced collagen expression in the heart (picrosirius red) (compound 2 at 50 ng/kg/min)
CC(=O)C1=C(C)OC(N)=C(C#N)C1c1ccc(C(=O)O)cc1.N (centres unmarked) [Compound 1, 4-(3-acetyl-6-amino-5-cyano-2-methyl-4H-pyran-4-yl)benzoic acid] | reverse | –
N[C@H]1CCSSC[C@@H](C(=O)NCc2ccccc2CC(=O)O)NC(=O)C[C@H](Cc2ccc(O)cc2)NC1=O [Compound 2] | – | reverse
